From ChEMBL document CHEMBL1201862, “PubChem BioAssay data set” (2004)
Activity calls are given as the source filed them.

Columns and labels:
Protein skinhead-1 = target: T1, Protein skinhead-1 (Caenorhabditis elegans, UniProt P34707); assay type: functional
T1 sequence (P34707 whole entry): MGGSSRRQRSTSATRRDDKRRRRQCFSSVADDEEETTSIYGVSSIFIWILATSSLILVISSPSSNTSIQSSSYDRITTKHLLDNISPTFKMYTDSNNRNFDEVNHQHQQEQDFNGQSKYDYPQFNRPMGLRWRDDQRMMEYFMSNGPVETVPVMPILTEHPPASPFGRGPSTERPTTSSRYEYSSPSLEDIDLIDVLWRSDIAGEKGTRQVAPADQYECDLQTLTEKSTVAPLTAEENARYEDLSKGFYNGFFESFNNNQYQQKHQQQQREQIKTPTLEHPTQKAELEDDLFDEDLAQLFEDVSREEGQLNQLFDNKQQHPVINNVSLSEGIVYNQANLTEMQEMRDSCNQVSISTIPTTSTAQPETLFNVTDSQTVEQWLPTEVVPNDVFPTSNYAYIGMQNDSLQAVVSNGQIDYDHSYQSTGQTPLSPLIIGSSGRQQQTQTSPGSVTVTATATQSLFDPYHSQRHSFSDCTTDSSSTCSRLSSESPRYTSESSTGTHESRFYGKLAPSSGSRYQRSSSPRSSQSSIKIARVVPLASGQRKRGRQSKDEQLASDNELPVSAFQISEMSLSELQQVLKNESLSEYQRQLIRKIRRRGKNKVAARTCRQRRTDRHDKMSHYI

[1] = target: T2, Sentrin-specific protease 8 (Homo sapiens, UniProt Q96LD8); assay type: functional;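 note: luminescence read-out of SENP8 inhibition, dose-response confirmation following an ultra-high-throughput screen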
T2 sequence (Q96LD8 whole entry): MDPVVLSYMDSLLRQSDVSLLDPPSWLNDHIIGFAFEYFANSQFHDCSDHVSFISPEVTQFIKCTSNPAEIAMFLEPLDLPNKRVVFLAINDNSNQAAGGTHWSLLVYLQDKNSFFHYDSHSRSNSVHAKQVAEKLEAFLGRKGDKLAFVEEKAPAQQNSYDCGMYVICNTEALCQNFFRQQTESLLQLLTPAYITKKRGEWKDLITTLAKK

[2] = HEK-293T cell viability reduction – luminescence, B-cell screen hits, cytotoxicity control for BCR NF-kB inhibitor project, dose response (AID 489021); assay type: functional, cell-based;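 note: HEK-293T cells carrying an NF-kB luciferase reporter; cells exposed to compound for about 14 hours before viability readout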

Row | Compound | IC50 (Protein skinhead-1) | IC50 [1] | IC50 [2]
1 | CC1CC(C)CN(C(=O)c2ccc3c(c2NCCO)C(=O)c2ccccc2C3=O)C1 (stereo not drawn) | > 100 µM (inactive) | – | –
2 | CCC(=O)N(C1=C(NC)C(=O)c2ccccc2C1=O)C(C)C | – | 25 µM (active) | > 80 µM (inactive)
